Here are results for 5 compounds from patent US10435400B2, “2,4-disubstituted phenylene-1,5-diamine derivatives and applications thereof, and pharmaceutical compositions and pharmaceutically acceptable compositions prepared therefrom” (SHANGHAI HAIYAN PHARMACEUTICAL TECHNOLOGY CO., LTD., priority 2014, dated 2019).

What is called clearance is the rate of elimination divided by the concentration. The term half-life denotes how long it takes for the measured level to halve. The AUC is concentration integrated over time.

The test system of data set [1] is H1975 cells. Put plainly: Cytostatic activity by MTT method, H1975 cells. The data set is classed as cell-based. Particulars: for IC50: Homo sapiens, read-out: H1975 cells (IC50/nM). In general terms: Tetrazolium dyes change colour on reduction, which living cells bring about.
Procedure: MTT assay used the method well known to those skilled in the art, and the reagents used in the method can be commercially obtained. […] After rinsed for one time, 1.5 ml trypsin/EDTA was added to digest the adherent cells until the cells detached, and then 3.5 ml of medium was added to terminate the trypsinization. The digested cell suspension was transferred to a 15 ml falcon tube, and spun at 1300 rpm for 3 min, the supernatant was discarded, and cells were suspended in fresh medium. […] The plates were spun at 2000 rpm for 5 min.
For the next data set, the system named is NIH3T3 cells. The data set is described as follows: Cytotoxicity by MTT method, NIH3T3 cells.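 Note: cells grown in 96-well plates with compound for 72 h, then given MTT for a further 4 h at 37 °C under 5% CO2.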 The data set is classed as cell-based. As to conditions: Mus musculus, read-out: NIH3T3 cells MTT assay (IC50/nM).
The test system of data set [2] is H1975 cells. The data set is described as follows: ELISA screening EGFR T790M inhibitor for cell activity, H1975 cells. The data set is classed as cell-based. Particulars: for IC50: Homo sapiens, read-out: H1975 cells (IC50/nM). (ELISA stands for enzyme-linked immunosorbent assay.)
Procedure: The reagents, preparation methods of the solution, as well as the procedures of cell treatments and preparation of lysate, and the test steps of ELISA in the following method were conducted according to the instructions of R&D DYC3570, R&D DYC1095E and R&D DYC1095BE.
Cell lysates: cell lysis buffer+10 μg/ml Aprotinin (Sigma), 10 μg/ml Leupeptin (Sigma). All reagents were prepared when using.
(2) The test compounds were diluted according to the method in MTT assay, and 10 μl of diluted compound or DMSO was added to the corresponding plate well, and incubated at 37° C. with 5% CO2 for 1 h. The final concentration of DMSO was 0.5%. Cell culture system merely treated with DMSO was used as cell control.
(3) 100 μl cell lysate was added after aspirating the medium, sealed and placed in a refrigerator at −80° C. overnight. Cell lysis buffer used as blank control.
The assay was operated according to the instructions of R&D DYC1095E or R&D DYC1095BE.
(5) 40 μl of cell lysis buffer and 60 μl of cell lysates were added, and incubated at 25° C. for 2 h under shaking;
(7) Detection antibody was diluted according to a predetermined ratio as stipulated in kit instructions by using IC diluent, and 100 μl of the diluted Detection Antibody was added to each well, and incubated at 25° C. for 1 h under shaking in darkness;
(9) reagent A and reagent B of TMB substrate (R & D DY999) were mixed with 1:1, and 100 μl of substrate was added to each well, and incubated at 25° C. for 20 minutes under shaking in darkness;
(11) The OD450 values and OD570 values of the cell control, blank control and compound treatment were measured respectively by using microplate reader (Thermo Multiskan K3), and the corresponding OD570 values were subtracted from OD450 values of the same wells to get the ODcell, ODblank and ODcompound treatment respectively.
2.3 Data Analysis Inhibition ratio (%)=100%×(ODcell−ODcompound treatment)(ODcell−ODblank)
The test system of data set [3] is A431 cells. Put plainly: ELISA cell activity, EGF-stimulated A431 cells.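 Note: Serum-starved A431 cells pretreated with compound for 1 h, then stimulated with EGF for 45 min, lysates read by ELISA (OD450 minus OD570), EGF-only wells as control.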 In kind it is cell-based. Particulars: Homo sapiens.
Data set [4] in a line: In vivo pharmacokinetic test in rats. Particulars: male, SD, rat, plasma; for clearance / half-life: IV 1 mg/kg; for clearance: read-out: Clearance CL; for half-life: read-out: Half-life T½ (converted); for bioavailability: oral gavage 20 mg/kg vs IV 1 mg/kg, read-out: Oral relative bioavailability F; for AUC / Cmax: route not given (IV 1 mg/kg, oral gavage 20 mg/kg); for AUC: read-out: Area under the curve AUC; for Cmax: read-out: Maximum plasma concentration Cmax. From the text: (§1) LC/MS/MS method was applied for the determination of the drug concentration in plasma at different times after the example compounds were orally and intravenously administered to rats or mice in order to study the pharmacokinetic behavior of the compounds of the invention in vivo in rats or mice and evaluate their pharmacokinetic characteristics.
(§2) Test Animals: healthy Adult male SD rats (weight 200-300 g, 6, fasted) or male CD1 mice (weight 20-30 g, 18, free access to water and food), provided by SLAC company;
(§3) Administration and Dosage: (1 mg/kg, 5 ml/kg, 5% DMAC (dimethylacetamide), 5% Solutol HS 15 (polyethylene glycol-15 hydroxystearate) and 90% saline was intravenously administered via foot dorsal vein and (20 mg/kg, 10 ml/kg, 0.5% CMC-Na solution) was administered via oral gavage to SD rats; (1 mg/kg, 5 ml/kg, 5% DMAC, 5% Solutol HS 15 and 90% Saline) was administered intravenously via tail vein and (5 mg/kg, 10 mL/kg, 0.5% CMC-Na aqueous solution) was administered via oral gavage to CD1 mice.
(§4) Blood collection: firstly, the animals which were selected to meet the test requirements prior to administration were weighed. The rats or mice were bound before the blood collection, blood from each administered rat was taken at predetermined time points (intravenous administration: blood was collected at 0.083, 0.25, 0.5, 1, 2, 4, 8, 24 h before and after administration respectively, 9 time points in total; gavage: blood was collected at 0.083, 0.25, 0.5, 1, 2, 4, 8, 24 h before and after administration respectively, 9 time points in total), about 150 μl of blood was collected via tail vein or heart (blood terminal). Blood from each administered mouse was taken blood at predetermined time points (tail vein: blood was collected at 0.083, 0.25, 0.5, 1, 2, 4, 8, 24 h, 8 time points in total; gavage: blood was collected at 0.25, 0.5, 1, 2, 4, 8, 24 h, 7 time points in total), about 150 μl of blood was collected via orbital or heart (blood terminal). Blood was transferred to a 1.5 ml tube to which K2EDTA was added previously. The collected blood sample was put on ice, and centrifuged to obtain plasma sample (2000 g, 5 min under 4° C.) within 15 minutes. All the plasma samples were stored at approximately −70° C. until analysis.
(§5) LC/MS/MS method was applied to determine the concentrations of the drug. At the same dose and administration, pharmacokinetic parameters of some example compounds of the invention in rats and mice were shown in Table 9: […]

Data set [5] in a line: In vivo pharmacokinetic test in mice. Particulars: male, CD1, mouse, plasma; for clearance / half-life: IV 1 mg/kg; for clearance: read-out: Clearance CL; for half-life: read-out: Half-life T½ (converted); for bioavailability: oral gavage 5 mg/kg vs IV 1 mg/kg, read-out: Oral relative bioavailability F; for AUC / Cmax: route not given (IV 1 mg/kg, oral gavage 5 mg/kg); for AUC: read-out: Area under the curve AUC; for Cmax: read-out: Maximum plasma concentration Cmax.
Source text: as §1, §2, §3, §4, §5

In data set [6] the test system is A431 cells. The data set is described as follows: Cytostatic activity by MTT method, A431 cells.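 Note: viability read by MTT reduction after compound exposure, with MTT incubated for a further 4 h at 37 °C under 5% CO2 in 96-well plates.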 As to conditions: Homo sapiens, A-431, 72 h, read-out: A431 cells (IC50/nM).
Procedure: (§6) After rinsed for one time, 1.5 ml trypsin/EDTA was added to digest the adherent cells until the cells detached, and then 3.5 ml of medium was added to terminate the trypsinization. The digested cell suspension was transferred to a 15 ml falcon tube, and spun at 1300 rpm for 3 min, the supernatant was discarded, and cells were suspended in fresh medium.
(§7) The cells were added into the incubator after addition of the test compound, and incubated for 72 h, 10 μl of 5 mg/ml MTT (Sigma, M5655) solution was added to each well of the plate, and incubated the 96-well plates at 37° C. 5% CO2 for 4 h in a incubator.
(§8) The plates were spun at 2000 rpm for 5 min.
Another data set addresses EGFR WT kinase (Homo sapiens (Human), UniProt P00533). Put plainly: Wild type EGFR kinase inhibition test (z-lyte). The data set is classed as biochemical. Particulars: 10 μM ATP.
Data set [7] has as its system T790M mutant cell line H1975. As to conditions: background statement; almost no activity; cited from earlier work.
Setting [8] is: NIH3T3, cytotoxicity, MTT, 72 h.
The mark [9] stands for this setting: A-431, ELISA, compound 1 h then EGF 45 minutes, read-out: A431 cells (IC50/nM).

Like-named read-outs stand apart in the source and are kept apart here. Where only a bound is given, the exact number is not on record here.

Sequence of EGFR WT kinase (P00533 25-1210): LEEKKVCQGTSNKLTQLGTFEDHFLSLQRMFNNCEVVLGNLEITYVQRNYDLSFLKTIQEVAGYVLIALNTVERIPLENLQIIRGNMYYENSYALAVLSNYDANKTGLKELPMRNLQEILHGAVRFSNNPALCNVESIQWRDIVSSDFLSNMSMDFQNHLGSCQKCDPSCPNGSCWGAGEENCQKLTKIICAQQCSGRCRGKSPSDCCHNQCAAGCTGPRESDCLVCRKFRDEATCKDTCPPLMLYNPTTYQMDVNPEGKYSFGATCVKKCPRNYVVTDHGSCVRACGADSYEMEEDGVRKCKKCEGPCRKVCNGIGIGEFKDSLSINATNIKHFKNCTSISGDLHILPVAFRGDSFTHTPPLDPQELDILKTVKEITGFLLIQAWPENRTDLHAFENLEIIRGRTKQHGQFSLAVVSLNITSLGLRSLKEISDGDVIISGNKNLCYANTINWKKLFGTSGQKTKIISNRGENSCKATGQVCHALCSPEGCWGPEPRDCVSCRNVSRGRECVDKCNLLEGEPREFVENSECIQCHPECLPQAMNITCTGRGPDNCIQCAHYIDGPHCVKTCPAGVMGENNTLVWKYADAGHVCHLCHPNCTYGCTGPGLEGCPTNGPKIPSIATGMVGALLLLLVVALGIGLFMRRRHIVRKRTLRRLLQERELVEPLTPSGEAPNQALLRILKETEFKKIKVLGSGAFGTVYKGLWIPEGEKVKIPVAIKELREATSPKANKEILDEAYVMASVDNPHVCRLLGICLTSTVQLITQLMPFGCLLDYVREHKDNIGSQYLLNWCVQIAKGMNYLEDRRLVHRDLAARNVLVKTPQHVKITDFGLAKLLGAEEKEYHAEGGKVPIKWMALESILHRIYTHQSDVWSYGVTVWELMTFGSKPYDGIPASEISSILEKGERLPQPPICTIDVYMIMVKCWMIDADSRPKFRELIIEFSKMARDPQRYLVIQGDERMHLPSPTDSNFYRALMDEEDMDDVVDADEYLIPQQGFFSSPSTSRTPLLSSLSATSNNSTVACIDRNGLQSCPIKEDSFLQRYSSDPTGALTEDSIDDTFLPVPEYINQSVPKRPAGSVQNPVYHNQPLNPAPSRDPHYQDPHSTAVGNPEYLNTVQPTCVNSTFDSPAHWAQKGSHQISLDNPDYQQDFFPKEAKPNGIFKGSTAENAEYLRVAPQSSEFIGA
Procedure for NIH3T3 cells: as §6, §7, §8

`C=CC(=O)Nc1cc(Nc2ncc(Cl)c(-c3cnn(C)c3)n2)c(OC)cc1N1CCC(N(C)C)CC1` [Compound Z-89, N-(5-(5-chloro-4-(1-methyl-1H-pyrazol-4-yl)pyrimidin-2-ylamino)-2-(4-(dimethylamino)piperidin-1-yl)-4-methoxyphenyl)acrylamide]: the IC50 in the data set with H1975 cells [1] (NCI-H1975, MTT, 72 h) was 19 nM; in the data set with NIH3T3 cells (setting [8]), 4040 nM; in the data set with H1975 cells [2] (NCI-H1975, ELISA, compound 1 h), 15 nM; with A431 cells [3] (setting [9]), 4790 nM; in the data set on A431 cells [6], 1730 nM. Also, the clearance in [4] turned out to be 43.5 mL/min/kg; in [5], 47.7 mL/min/kg. The figures for the half-life in [4] and in data set [5] were 7.05 h and 4.43 h, respectively. Besides, the figures for the bioavailability in data set [4] and in data set [5] were 102% and 59.7%, respectively. In addition, the AUC in data set [4] stood at 7190 ng·h/mL; in data set [5] it was 1040 ng·h/mL. Further, the figures for the Cmax in [4] and in [5] were 437 ng/mL and 85.3 ng/mL, respectively.

Turning to `C=CC(=O)Nc1cc(Nc2ncc(F)c(-c3cnn(C)c3)n2)c(OC)cc1N1CCC(N(C)C)CC1` [Compound Z-90, N-(2-(4-(dimethylamino)piperidin-1-yl)-5-(5-fluoro-4-(1-methyl-1H-pyrazol-4-yl)pyrimidin-2-ylamino)-4-methoxyphenyl)acrylamide], the IC50 against EGFR WT kinase was 102 nM; in the data set on H1975 cells [1] (NCI-H1975, MTT, 72 h), 17 nM; in the data set with NIH3T3 cells (setting [8]), > 10000 nM; with H1975 cells [2] (NCI-H1975, ELISA, compound 1 h) it was 34 nM; with A431 cells [3] (setting [9]), 1690 nM; with A431 cells [6], 2390 nM. Also, the “selective inhibitory activity against the cell growth [IC50 (A431 cells)/IC50 (H1975 cells)]” value with H1975 cells [1] (MTT, ratio of IC50 values) is listed as 140.6. Besides, the “Selective inhibitory activities of target on cellular level [IC50 (A431 cells)/IC50 (H1975 cells)]” value in the data set on H1975 cells [2] (ELISA, ratio of IC50 values) was found to be 50. In addition, the clearance in data set [4] came to 43.9 mL/min/kg; in data set [5], 65.5 mL/min/kg. In addition, the half-life in data set [4] is 7.02 h; in data set [5], 4.65 h. The bioavailability in [4] is 92.6%; in data set [5], 66.4%. Further, the area under the curve (AUC) in [4] came out at 6480 ng·h/mL; in [5] it was 657 ng·h/mL. In addition, the Cmax in data set [4] is 408 ng/mL; in data set [5], 90.6 ng/mL.

Turning to `C=CC(=O)Nc1cc(Nc2nccc(-c3cn(C)c4ccccc34)n2)c(OC)cc1N(C)CCN(C)C` [comparative compound 1, reference compound], the IC50 came to 13 nM in the data set with H1975 cells [1] (NCI-H1975, 72 h); 3550 nM with NIH3T3 cells (NIH3T3, 72 h); 29 nM in the data set on H1975 cells [2] (NCI-H1975, 1 h); […] with A431 cells [3] (A-431, read-out: A431 cells (IC50/nM)); […] with A431 cells [6]. For the same compound, the half-life in data set [4] was 8.28 h; in [5], 1.99 h. The bioavailability in data set [4] worked out at 18.5%; in data set [5] it was 30.2%.

With `C#Cc1cccc(Nc2ncnc3cc(OCCOC)c(OCCOC)cc23)c1` [erlotinib], the “activity in T790M mutant cell line H1975” value in [7] was “greater than 3 uM”.

On to `COc1cc2ncnc(Nc3ccc(F)c(Cl)c3)c2cc1OCCCN1CCOCC1` [gefitinib], for which the “activity in T790M mutant cell line H1975” value in [7] is listed as “greater than 3 uM”.
